Columns and labels:
FaDu = experiment: Anticancer activity against human FaDu cells assessed as cell growth inhibition measured after 48 hrs; type: functional, cell-based; details: Homo sapiens, FaDu, 48 h
MCF7 [1] = experiment: Anticancer activity against human MCF7 cells assessed as cell growth inhibition measured after 48 hrs by MTT assay; type: functional, cell-based; details: MCF7, 48 h
A549 [2] = experiment: Anticancer activity against human A549 cells assessed as cell growth inhibition measured after 48 hrs by MTT assay; type: functional, cell-based; details: A549, 48 h
HCT-116 = experiment: Anticancer activity against human HCT-116 cells assessed as cell growth inhibition measured after 48 hrs by MTT assay; type: functional, cell-based; details: HCT-116, 48 h
PC-3 = experiment: Anticancer activity against human PC-3 cells assessed as cell growth inhibition measured after 48 hrs by MTT assay; type: functional, cell-based; details: PC-3, 48 h
HepG2 [3] = experiment: Anticancer activity against human HepG2 cells assessed as cell growth inhibition measured after 48 hrs by MTT assay; type: functional, cell-based; details: HepG2, 48 h
MCF7 [4] = experiment: Anticancer activity against human MCF7 cells assessed as cell growth inhibition at 100 uM by MTT assay relative to control; type: functional
A549 [5] = experiment: Anticancer activity against human A549 cells assessed as cell growth inhibition at 100 uM by MTT assay relative to control; type: functional
HepG2 [6] = experiment: Anticancer activity against human HepG2 cells assessed as cell growth inhibition at 100 uM by MTT assay relative to control; type: functional
A-431 = experiment: Anticancer activity against human A-431 cells assessed as cell growth inhibition at 100 uM by MTT assay relative to control; type: functional

| SMILES | inhibition at 100 µM (MCF7 [4]) [%] | inhibition at 100 µM (A549 [5]) [%] | inhibition at 100 µM (HepG2 [6]) [%] | inhibition at 100 µM (A-431) [%] | further results |
| --- | --- | --- | --- | --- | --- |
| O=C1Nc2ccccc2C12N[C@H](Cc1ccccc1)[C@@H](c1ccc(Br)cc1)[C@@]21CN(/C=C/c2ccccc2)C/C(=C\c2ccc(Br)cc2)C1=O (some centres not stated) | – | – | – | – | IC50 (FaDu): ≥ 19000 nM |
| Cc1cc(=O)oc2cc(NC(=O)CN3CCCC3)ccc12 | – | – | – | – | IC50 (MCF7 [1]): 4800 nM; IC50 (A549 [2]): 4380 nM |
| O=C(/C=C/c1ccc2ccccc2c1)[C@H]1[C@H](c2ccc3ccccc3c2)[C@H]2CSCN2[C@]12C(=O)Nc1ccccc12 | – | – | – | – | IC50 (HCT-116): 1570 nM; IC50 (PC-3): ≥ 800 nM; IC50 (HepG2 [3]): ≥ 1500 nM |
| O=C1Nc2ccccc2C12N[C@H](Cc1ccccc1)[C@@H](c1cccc([N+](=O)[O-])c1)[C@@]21CN(/C=C/c2ccccc2)C/C(=C\c2cccc([N+](=O)[O-])c2)C1=O (some centres not stated) | – | – | – | – | IC50 (FaDu): ≥ 19000 nM |
| CCCCCC/C=C\CCCCCCCC(=O)N1CCC[C@@H]1OP(=O)([O-])OCC[N+](C)(C)C | 22.6 | 4.7 | 10.1 | 0.3 | – |
| Cc1cc(=O)oc2cc(NC(=O)CN3CCC[C@@H]3C(N)=O)ccc12 | – | – | – | – | IC50 (MCF7 [1]): 355 nM; IC50 (A549 [2]): 24 nM |
| CCCCCC/C=C\CCCCCCCC(=O)N1CCC[C@H]1OP(=O)([O-])OCC[N+](C)(C)C | 22.6 | 4.7 | 10.1 | 0.3 | – |
| O=C1Nc2ccccc2C12N[C@H](Cc1ccccc1)[C@@H](c1ccc(Cl)cc1)[C@@]21CN(/C=C/c2ccccc2)C/C(=C\c2ccc(Cl)cc2)C1=O (some centres not stated) | – | – | – | – | IC50 (FaDu): ≥ 19000 nM |
| CCCCCCCC/C=C\CC(=O)N1CCC[C@H]1COP(=O)([O-])OCC[N+](C)(C)C | 91 | 4.7 | 10.1 | 0.3 | – |
| N#C[C@H]1CCCN1CC(=O)Nc1cc2ccccc2oc1=O | – | – | – | – | IC50 (MCF7 [1]): 4370 nM; IC50 (A549 [2]): 4370 nM |
| O=C(/C=C/c1ccc(F)cc1)[C@H]1[C@H](c2ccc(F)cc2)[C@H]2CSCN2[C@]12C(=O)Nc1ccccc12 | – | – | – | – | IC50 (HCT-116): 1570 nM; IC50 (PC-3): ≥ 800 nM; IC50 (HepG2 [3]): ≥ 1500 nM |
| O=C1Nc2ccccc2C12N[C@H](Cc1ccccc1)[C@@H](c1ccccc1Cl)[C@@]21CN(/C=C/c2ccccc2)C/C(=C\c2ccccc2Cl)C1=O (some centres not stated) | – | – | – | – | IC50 (FaDu): ≥ 19000 nM |
| O=C(N[C@H]1C[C@@H](C(=O)NO)N(S(=O)(=O)c2ccc(Oc3ccccc3)cc2)C1)c1cc(Br)cnc1Cl | – | – | – | – | IC50 (A549 [2]): 5000 nM |
| Cc1ccc([C@@H]2[C@H]3CSCN3[C@]3(C(=O)Nc4ccccc43)[C@H]2C(=O)/C=C/c2ccccc2)cc1 | – | – | – | – | IC50 (HCT-116): 1570 nM; IC50 (PC-3): ≥ 800 nM; IC50 (HepG2 [3]): ≥ 1500 nM |
| CCCCCCCC/C=C\CC(=O)N1CCC[C@@H]1COP(=O)([O-])OCC[N+](C)(C)C | 93 | 4.7 | 10.1 | 0.3 | – |
| CCCCCCCCCCCCCCCC(=O)N1CCC[C@@H]1OP(=O)([O-])OCC[N+](C)(C)C | 22.6 | 4.7 | 10.1 | 0.3 | – |
| CCCCCCCCCCCCCCCCCC/C=C\CCCCCCCC(=O)N1CCC[C@@H]1OP(=O)([O-])OCC[N+](C)(C)C | 22.6 | 4.7 | 10.1 | 0.3 | – |
| CCCCCCCCCCCCCCCC(=O)N1CC[C@H](COP(=O)([O-])OCC[N+](C)(C)C)C1 | 74.6 | 71.6 | 57.3 | 74.2 | – |
| O=C1Nc2ccccc2C12N[C@H](Cc1ccccc1)[C@@H](c1ccc(Cl)cc1Cl)[C@@]21CN(/C=C/c2ccccc2)C/C(=C\c2ccc(Cl)cc2Cl)C1=O (some centres not stated) | – | – | – | – | IC50 (FaDu): 22000 nM |
| Cc1cccc(/C=C2\CN(/C=C/c3ccccc3)C[C@]3(C2=O)[C@H](c2cccc(C)c2)[C@@H](Cc2ccccc2)NC32C(=O)Nc3ccccc32)c1 (some centres not stated) | – | – | – | – | IC50 (FaDu): 21800 nM |
| CCCCCC/C=C\CCCCCCCC(=O)N1CC[C@H](OP(=O)([O-])OCC[N+](C)(C)C)C1 | 22.6 | 4.7 | 10.1 | 0.3 | – |
| CCCCCCCCCCCCCCCC(=O)N1CC[C@@H](OP(=O)([O-])OCC[N+](C)(C)C)C1 | 22.6 | 4.7 | 10.1 | 0.3 | – |
| O=C(/C=C/c1ccc(F)cc1)[C@H]1[C@H](c2ccc(F)cc2)[C@H]2CSCN2[C@]12C(=O)Nc1ccc(Cl)cc12 | – | – | – | – | IC50 (HCT-116): 1570 nM; IC50 (PC-3): ≥ 800 nM; IC50 (HepG2 [3]): ≥ 1500 nM |
| O=C(/C=C/c1cccs1)[C@H]1[C@H](c2cccs2)[C@H]2CSCN2[C@]12C(=O)Nc1ccccc12 | – | – | – | – | IC50 (HCT-116): 1570 nM; IC50 (PC-3): ≥ 800 nM; IC50 (HepG2 [3]): ≥ 1500 nM |
| Cc1cc(=O)oc2cc(NC(=O)[C@@H]3CCCN3S(=O)(=O)c3ccccc3)ccc12 | – | – | – | – | IC50 (MCF7 [1]): 2580 nM; IC50 (A549 [2]): 18100 nM |
| O=C(N[C@H]1C[C@@H](C(=O)NO)N(S(=O)(=O)c2ccc(Oc3ccccc3)cc2)C1)c1cccnc1 | – | – | – | – | IC50 (A549 [2]): 5000 nM |
